Results as given in PubChem BioAssay AID248 (DTP/NCI, 2004).
Where “and” joins values, the source holds several entries; their conditions need not be identical. Equal values may be shown once. Inconclusive results and toxic doses are left out. Cut-off read from the data, not from the text of the source: active = T/C of 150% or more; inactive = T/C below 125%.

Tested on: L1210 leukemia ip in BDF1 mice, survival T/C
Assay: NCI In Vivo Anticancer Drug Screen. Data for tumor model L1210 Leukemia (intraperitoneal) in B6D2F1 (BDF1) mice
Conditions: endpoint: mean survival time, higher = longer survival
Procedure, shortened: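 Value reflects the ratio of survival in compound-treated mice to survival in vehicle-treated controls, with both groups carrying the same transplanted tumor.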

[1] = dose: 50.0 mg/kg/injection, schedule: Q01DX009 (ip), vehicle: saline with Tween-80
[2] = dose: 100.0 mg/kg/injection, schedule: Q01DX009 (ip), vehicle: saline with Tween-80
[3] = dose: 200.0 mg/kg/injection, schedule: Q01DX009 (ip), vehicle: saline with Tween-80
[4] = dose: 6.25 mg/kg/injection, schedule: Q04DX003 (ip), vehicle: saline
[5] = dose: 12.5 mg/kg/injection, schedule: Q04DX003 (ip), vehicle: saline
[6] = dose: 25.0 mg/kg/injection, schedule: Q01DX009 (ip), vehicle: water
[7] = dose: 100.0 mg/kg/injection, schedule: Q04DX002 (ip), vehicle: Klucel (hydroxypropylcellulose) (HPC)
[8] = dose: 200.0 mg/kg/injection, schedule: Q04DX002 (ip), vehicle: Klucel (hydroxypropylcellulose) (HPC)
[9] = dose: 400.0 mg/kg/injection, schedule: Q04DX002 (ip), vehicle: Klucel (hydroxypropylcellulose) (HPC)
[10] = dose: 100.0 mg/kg/injection, schedule: Q04DX003 (ip), vehicle: saline with Tween-80
[11] = dose: 200.0 mg/kg/injection, schedule: Q04DX003 (ip), vehicle: saline with Tween-80
[12] = dose: 400.0 mg/kg/injection, schedule: Q04DX003 (ip), vehicle: saline with Tween-80
[13] = dose: 25.0 mg/kg/injection, schedule: Q04DX003 (ip), vehicle: saline
[14] = dose: 100.0 mg/kg/injection, schedule: Q01DX Z (ip), vehicle: methylcellulose (MC)
[15] = dose: 100.0 mg/kg/injection, schedule: Q01DX009 (ip), vehicle: Klucel (hydroxypropylcellulose) (HPC)
[16] = dose: 100.0 mg/kg/injection, schedule: Q04DX003 (ip), vehicle: saline
[17] = dose: 200.0 mg/kg/injection, schedule: Q01DX009 (ip), vehicle: Klucel (hydroxypropylcellulose) (HPC)
[18] = dose: 200.0 mg/kg/injection, schedule: Q04DX003 (ip), vehicle: saline
[19] = dose: 400.0 mg/kg/injection, schedule: Q01DX009 (ip), vehicle: Klucel (hydroxypropylcellulose) (HPC)
[20] = dose: 400.0 mg/kg/injection, schedule: Q04DX003 (ip), vehicle: saline

Measured: T/C

COC(=O)C(CC/C(=N\NC(N)=O)c1ccccc1)C(=O)OC
inactive: [1] 98 % of control | [2] 98 % of control | [3] 91 % of control

CC(=O)NNC(=O)c1cnccn1
inactive: [4] 100 % of control | [5] 97 % of control | dose: 24.0 mg/kg/injection, schedule: Q04DX003 (ip), vehicle: saline 97 % of control | [6] 95 % of control and 98 % of control | dose: 48.0 mg/kg/injection, schedule: Q04DX003 (ip), vehicle: saline 102 % of control | dose: 50.0 mg/kg/injection, schedule: Q01DX009 (ip), vehicle: water 97 % of control and 102 % of control | dose: 100.0 mg/kg/injection, schedule: Q01DX009 (ip), vehicle: water 112 % of control and 123 % of control | dose: 200.0 mg/kg/injection, schedule: Q01DX001 (ip), vehicle: water 103 % of control | dose: 200.0 mg/kg/injection, schedule: Q01DX009 (ip), vehicle: water 116 % of control and 118 % of control

Oc1ccccc1/C=N/Sc1ccccc1.Oc1ccccc1/C=N/Sc1ccccc1.[Ni+2]
inactive: [7] 94 % of control | [8] 94 % of control | [9] 105 % of control

[Cl][Hg][CH2]CC1CC=CCC1 (stereo not given)
inactive: dose: 3.13 mg/kg/injection, schedule: Q01DX009 (ip), vehicle: saline sonified 92 % of control | dose: 6.25 mg/kg/injection, schedule: Q01DX009 (ip), vehicle: saline sonified 94 % of control | dose: 6.25 mg/kg/injection, schedule: Q04DX003 (ip), vehicle: Klucel (hydroxypropylcellulose) (HPC) 98 % of control | dose: 12.5 mg/kg/injection, schedule: Q01DX009 (ip), vehicle: saline sonified 100 % of control | dose: 12.5 mg/kg/injection, schedule: Q04DX003 (ip), vehicle: Klucel (hydroxypropylcellulose) (HPC) 87 % of control

C=CCC(CC)C(=O)Cl (stereo not given)
inactive: [2] 104 % of control | [10] 94 % of control | [3] 91 % of control | [11] 94 % of control | dose: 400.0 mg/kg/injection, schedule: Q01DX009 (ip), vehicle: saline with Tween-80 91 % of control | [12] 102 % of control

CCCCC(=O)N/N=C/c1ccc(N(C)C)cc1Cl
inactive: dose: 100.0 mg/kg/injection, schedule: Q01DX001 (ip), vehicle: saline 93 % of control | dose: 200.0 mg/kg/injection, schedule: Q01DX001 (ip), vehicle: saline 93 % of control | dose: 400.0 mg/kg/injection, schedule: Q01DX001 (ip), vehicle: saline 96 % of control

CCN(CC)CC(=O)NCC(CCCCN1CCCC1)(c1cccc2ccccc12)C(C)C (stereo not given)
inactive: [4] 104 % of control | [5] 110 % of control | [13] 93 % of control

NC(=S)NN=C1CSSC1
inactive: dose: 1.56 mg/kg/injection, schedule: Q01DX009 (ip), vehicle: water 99 % of control | dose: 3.12 mg/kg/injection, schedule: Q01DX009 (ip), vehicle: water 96 % of control | dose: 6.25 mg/kg/injection, schedule: Q01DX009 (ip), vehicle: water 99 % of control | dose: 12.5 mg/kg/injection, schedule: Q01DX009 (ip), vehicle: water 103 % of control | dose: 12.5 mg/kg/injection, schedule: Q04DX003 (ip), vehicle: water 95 % of control | [6] 103 % of control

CCN(CC)CC(=O)NCC(CCCN1CCCCC1)(c1cccc2ccccc12)C(C)C (stereo not given)
inactive: dose: 12.5 mg/kg/injection, schedule: Q01DX009 (ip), vehicle: saline 91 % of control | [5] 98 % of control | dose: 25.0 mg/kg/injection, schedule: Q01DX009 (ip), vehicle: saline 90 % of control | [13] 95 % of control | dose: 50.0 mg/kg/injection, schedule: Q01DX009 (ip), vehicle: saline 86 % of control | dose: 50.0 mg/kg/injection, schedule: Q04DX003 (ip), vehicle: saline 96 % of control

Cc1ccc(C(=O)N/N=C/c2c(O)ccc3ccccc23)cc1
inactive: [7] 89 % of control | [8] 89 % of control | [9] 96 % of control

CC(C)(CO)Nc1ccccc1
inactive: [10] 114 % of control | [11] 90 % of control | [12] 97 % of control

N/N=C(\c1ccccc1)c1ccncc1
inactive: dose: 44.0 mg/kg/injection, schedule: Q01DX Z (ip), vehicle: methylcellulose (MC) 106 % of control | dose: 66.0 mg/kg/injection, schedule: Q01DX Z (ip), vehicle: methylcellulose (MC) 90 % of control | [14] 87 % of control

c1ccc(-c2cc(-c3ccccc3)on2)cc1
inactive: dose: 100.0 mg/kg/injection, schedule: Q04DX003 (ip), vehicle: Klucel (hydroxypropylcellulose) (HPC) 100 % of control | dose: 200.0 mg/kg/injection, schedule: Q04DX003 (ip), vehicle: Klucel (hydroxypropylcellulose) (HPC) 98 % of control | dose: 400.0 mg/kg/injection, schedule: Q04DX003 (ip), vehicle: Klucel (hydroxypropylcellulose) (HPC) 102 % of control

Cn1cnc2nn[nH]c(=O)c21
inactive: [15] 94 % of control | [16] 92 % of control | [17] 96 % of control | [18] 92 % of control | [19] 90 % of control | [20] 95 % of control

O=C(Nc1cccc(O)c1)c1ccc([N+](=O)[O-])cc1
inactive: [15] 93 % of control | [17] 90 % of control | [19] 90 % of control

CNC(=O)Oc1ccc(Br)cc1Br
inactive: [15] 101 % of control | [17] 100 % of control

Cc1cc(=O)c2cc(-c3ccccc3)ccc2[nH]1
inactive: [16] 100 % of control | [18] 92 % of control | [20] 90 % of control

NC1=NC(CNC(=O)c2cccc([N+](=O)[O-])c2)N(c2cccc(Cl)c2)C(N)=N1 (stereo not given)
inactive: dose: 50.0 mg/kg/injection, schedule: Q01DX Z (ip), vehicle: methylcellulose (MC) 93 % of control

O=NN(CCCl)C(=O)NC1C2CC3CC(C2)CC1C3 (stereo not given)
inactive: dose: 12.0 mg/kg/injection, schedule: Q01DX001 (ip), vehicle: other 110 % of control | dose: 18.0 mg/kg/injection, schedule: Q01DX001 (ip), vehicle: other 114 % of control | dose: 26.0 mg/kg/injection, schedule: Q01DX001 (ip), vehicle: other 123 % of control
active: dose: 40.0 mg/kg/injection, schedule: Q01DX001 (ip), vehicle: other 163 % of control | dose: 60.0 mg/kg/injection, schedule: Q01DX001 (ip), vehicle: other 244 % of control | dose: 93.0 mg/kg/injection, schedule: Q01DX001 (ip), vehicle: other 323 % of control | dose: 187.0 mg/kg/injection, schedule: Q01DX001 (ip), vehicle: other 340 % of control

O=C1NCC(Nc2ccc(Cl)cc2)C(=O)N1 (stereo not given)
inactive: [14] 89 % of control | dose: 200.0 mg/kg/injection, schedule: Q01DX Z (ip), vehicle: methylcellulose (MC) 92 % of control

Cc1ccc([N+](=O)[O-])cc1NC(=O)Nc1nccs1
inactive: [15] 104 % of control | [17] 101 % of control | [19] 102 % of control

C#CC[N+]1=CN(c2ccc(C)cc2)Cc2cc(C)ccc21
inactive: [1] 89 % of control | [2] 93 % of control | [10] 110 % of control | [11] 98 % of control

CC1(C)C/C(=C\c2cccc([N+](=O)[O-])c2)C(=O)c2ccccc21
inactive: dose: 100.0 mg/kg/injection, schedule: Q01DX001 (ip), vehicle: Klucel (hydroxypropylcellulose) (HPC) 94 % of control | dose: 200.0 mg/kg/injection, schedule: Q01DX001 (ip), vehicle: Klucel (hydroxypropylcellulose) (HPC) 93 % of control | dose: 400.0 mg/kg/injection, schedule: Q01DX001 (ip), vehicle: Klucel (hydroxypropylcellulose) (HPC) 94 % of control

Cc1cccc(C2NC(=O)N3C(c4cccc(C)c4)NC(=O)N23)c1 (stereo not given)
inactive: dose: 100.0 mg/kg/injection, schedule: Q01DX009 (ip), vehicle: gum acacia 89 % of control | dose: 100.0 mg/kg/injection, schedule: Q04DX003 (ip), vehicle: gum acacia 88 % of control | dose: 200.0 mg/kg/injection, schedule: Q01DX009 (ip), vehicle: gum acacia 88 % of control | dose: 200.0 mg/kg/injection, schedule: Q04DX003 (ip), vehicle: gum acacia 93 % of control | dose: 400.0 mg/kg/injection, schedule: Q04DX003 (ip), vehicle: gum acacia 90 % of control
